Experimental data from ChEMBL document CHEMBL1201862, “PubChem BioAssay data set” (2004).
Activity calls are given as the source filed them.

Experiments:
[1] = target: T1, Cytochrome P450 1A2 (Homo sapiens, UniProt P05177);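 note: PubChem cytochrome P450 panel assay, CYP1A2 panel member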
T1 sequence (P05177 whole entry): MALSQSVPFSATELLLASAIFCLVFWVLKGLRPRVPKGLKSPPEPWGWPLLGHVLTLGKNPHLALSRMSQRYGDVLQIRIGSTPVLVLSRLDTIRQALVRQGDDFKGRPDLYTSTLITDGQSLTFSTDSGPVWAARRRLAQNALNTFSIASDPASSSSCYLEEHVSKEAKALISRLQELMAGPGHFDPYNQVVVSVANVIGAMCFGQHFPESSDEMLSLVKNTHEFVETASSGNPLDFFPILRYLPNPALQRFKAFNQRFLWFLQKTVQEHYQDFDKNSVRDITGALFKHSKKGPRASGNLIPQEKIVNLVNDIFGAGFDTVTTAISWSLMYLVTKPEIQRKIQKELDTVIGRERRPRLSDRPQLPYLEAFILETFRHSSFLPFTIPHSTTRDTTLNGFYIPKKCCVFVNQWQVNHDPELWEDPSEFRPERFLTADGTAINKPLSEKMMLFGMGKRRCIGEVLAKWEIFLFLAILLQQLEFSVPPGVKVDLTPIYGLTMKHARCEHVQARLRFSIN

[2] = inhibitors of firefly luciferase expression or activity, dose response, H4 neuroglioma cells, luminescence (AID 1990); type: functional, cell-based
[3] = inhibitors of SNCA 5'UTR-driven reporter translation, confirmation, H4 neuroglioma cells, luminescence (AID 1988); type: functional, cell-based
[4] = Luminescence Cell-Based Dose Response HTS to Identify Inhibitors of 5'UTR Stem-Loop Driven Prion Protein mRNA Translation in H4 Neuroglioblastoma Cells. [Related pubchem assays: 1827 (Project Summary), 1813 (Primary HTS)]; type: functional
[5] = target: Cytochrome P450 2C9 (Homo sapiens, UniProt P11712)
[6] = target: Cytochrome P450 2D6 (Homo sapiens, UniProt P10635);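 note: CYP2D6 member of a cytochrome P450 panel assay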
[7] = target: FAD-linked sulfhydryl oxidase ALR (Homo sapiens, UniProt P55789); assay: inhibitors of human ALR sulfhydryl oxidase, dose response, biochemical, H2O2 detection, luminescence, cherry-pick (AID 493248)
[8] = target: Cytochrome P450 2C19 (Homo sapiens, UniProt P33261); assay: Cytochrome panel assay with activity outcomes. Panel member name: p450-cyp2c19 Compounds with AC50 equal or less than 10 uM are considered active; type: functional
[9] = test system: INS1; assay: beta cell apoptosis inhibitors, cytokine rescue, dose response, luminescence, retest (AID 449756); type: functional, cell-based; settings: Rattus norvegicus;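 note: cell death triggered by IL-1 beta plus TNF-alpha plus IFN-gamma mixture; protective hits raise ATP signal compared with cytokine alone wells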
[10] = target: Cytochrome P450 3A4 (Homo sapiens, UniProt P08684);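 note: CYP3A4 tested as one member of a cytochrome P450 panel screen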
[11] = target: T2, Corticotropin-releasing factor receptor 2/Corticotropin-releasing factor-binding protein (Homo sapiens, UniProt P24387+Q13324); assay: activators of CRF receptor 2 with binding protein – uHTS hits, confirmation (AID 602473); type: functional; settings: read-out: EC50_Mean
T2 sequence (Q13324 whole entry): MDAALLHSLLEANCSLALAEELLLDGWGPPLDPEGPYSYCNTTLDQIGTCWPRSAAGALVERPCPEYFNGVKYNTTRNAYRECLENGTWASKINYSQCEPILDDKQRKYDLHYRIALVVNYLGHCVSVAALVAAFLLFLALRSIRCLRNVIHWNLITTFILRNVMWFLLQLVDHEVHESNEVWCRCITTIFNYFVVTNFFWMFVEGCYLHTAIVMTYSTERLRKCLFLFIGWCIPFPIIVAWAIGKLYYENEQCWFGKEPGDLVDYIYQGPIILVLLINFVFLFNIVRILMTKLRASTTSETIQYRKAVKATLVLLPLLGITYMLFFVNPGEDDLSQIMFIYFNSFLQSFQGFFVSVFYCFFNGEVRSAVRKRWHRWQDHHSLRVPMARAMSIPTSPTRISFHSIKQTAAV
T2 sequence (P24387 whole entry): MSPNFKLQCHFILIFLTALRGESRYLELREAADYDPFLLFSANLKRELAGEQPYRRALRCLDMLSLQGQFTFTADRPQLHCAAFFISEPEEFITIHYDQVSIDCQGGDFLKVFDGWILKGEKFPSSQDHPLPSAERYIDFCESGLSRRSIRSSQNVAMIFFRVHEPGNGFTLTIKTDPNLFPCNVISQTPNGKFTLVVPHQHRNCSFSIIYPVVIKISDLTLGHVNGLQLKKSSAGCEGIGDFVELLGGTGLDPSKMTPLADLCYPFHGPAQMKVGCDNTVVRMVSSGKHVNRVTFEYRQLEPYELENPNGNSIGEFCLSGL

[12] = Luminescence Cell-Based Dose Retest to Confirm Inhibitors of Cancer Stem Cells. [Related pubchem assays (depositor defined):AID2717, AID2721]; type: functional; settings: Homo sapiens
[13] = target: T3, Streptokinase A (Streptococcus pyogenes serotype M1, UniProt P10520); assay: S. pyogenes streptokinase expression inhibitors, potency, dose response, plasminogen activation absorbance, OD405 (AID 1914); type: functional, Streptococcus pyogenes M1 GAS;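 note: secreted streptokinase activity via plasminogen activation per viability signal from cell pellet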
T3 sequence (P10520 whole entry): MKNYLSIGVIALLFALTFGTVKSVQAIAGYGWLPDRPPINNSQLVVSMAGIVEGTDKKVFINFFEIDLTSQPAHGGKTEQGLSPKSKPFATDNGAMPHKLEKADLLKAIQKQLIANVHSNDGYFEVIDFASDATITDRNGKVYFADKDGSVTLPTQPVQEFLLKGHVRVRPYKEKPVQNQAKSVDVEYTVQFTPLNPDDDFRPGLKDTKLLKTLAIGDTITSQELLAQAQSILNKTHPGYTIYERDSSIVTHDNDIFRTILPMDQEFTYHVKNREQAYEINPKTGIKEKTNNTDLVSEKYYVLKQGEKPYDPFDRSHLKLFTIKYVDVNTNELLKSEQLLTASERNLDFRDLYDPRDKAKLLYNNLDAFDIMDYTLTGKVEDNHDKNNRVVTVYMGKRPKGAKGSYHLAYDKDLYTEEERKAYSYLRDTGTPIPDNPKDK

[14] = test system: Streptococcus sp. 'group A'; assay: growth inhibition of control SK(-) GAS strain, dose response, counter-screen for streptokinase expression inhibitor project, luminescence, kanamycin, BacTiterGlo, confirmation (AID 1900); type: functional, organism-based
[15] = test system: Streptococcus; assay: Group A Streptococcus viability loss, dose response, counter-screen for streptokinase expression inhibitor project, luminescence, BacTiterGlo (AID 1915); type: functional, organism-based;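 note: potency for reduction of bacterial viability or growth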

Chain of Cytochrome P450 2C19 (P33261 whole entry): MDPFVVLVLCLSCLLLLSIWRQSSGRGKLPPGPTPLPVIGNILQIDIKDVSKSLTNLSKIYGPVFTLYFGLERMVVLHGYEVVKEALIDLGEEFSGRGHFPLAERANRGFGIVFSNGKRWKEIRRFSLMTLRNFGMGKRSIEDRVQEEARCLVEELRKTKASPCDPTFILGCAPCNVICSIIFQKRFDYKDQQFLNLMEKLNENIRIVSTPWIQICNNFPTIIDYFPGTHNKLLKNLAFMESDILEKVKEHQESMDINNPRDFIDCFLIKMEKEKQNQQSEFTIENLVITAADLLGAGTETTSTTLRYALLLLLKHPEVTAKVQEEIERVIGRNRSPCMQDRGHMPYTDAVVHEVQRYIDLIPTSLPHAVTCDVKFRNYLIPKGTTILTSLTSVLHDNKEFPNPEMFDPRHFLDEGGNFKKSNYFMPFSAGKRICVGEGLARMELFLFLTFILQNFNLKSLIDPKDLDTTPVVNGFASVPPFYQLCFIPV
Chain of FAD-linked sulfhydryl oxidase ALR (P55789 whole entry): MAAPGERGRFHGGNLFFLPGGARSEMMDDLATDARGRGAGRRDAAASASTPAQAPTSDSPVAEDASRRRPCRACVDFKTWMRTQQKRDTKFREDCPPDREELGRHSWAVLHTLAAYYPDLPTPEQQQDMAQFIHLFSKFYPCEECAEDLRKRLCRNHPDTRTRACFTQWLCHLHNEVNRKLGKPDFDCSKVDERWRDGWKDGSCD
Chain of Cytochrome P450 2C9 (P11712 whole entry): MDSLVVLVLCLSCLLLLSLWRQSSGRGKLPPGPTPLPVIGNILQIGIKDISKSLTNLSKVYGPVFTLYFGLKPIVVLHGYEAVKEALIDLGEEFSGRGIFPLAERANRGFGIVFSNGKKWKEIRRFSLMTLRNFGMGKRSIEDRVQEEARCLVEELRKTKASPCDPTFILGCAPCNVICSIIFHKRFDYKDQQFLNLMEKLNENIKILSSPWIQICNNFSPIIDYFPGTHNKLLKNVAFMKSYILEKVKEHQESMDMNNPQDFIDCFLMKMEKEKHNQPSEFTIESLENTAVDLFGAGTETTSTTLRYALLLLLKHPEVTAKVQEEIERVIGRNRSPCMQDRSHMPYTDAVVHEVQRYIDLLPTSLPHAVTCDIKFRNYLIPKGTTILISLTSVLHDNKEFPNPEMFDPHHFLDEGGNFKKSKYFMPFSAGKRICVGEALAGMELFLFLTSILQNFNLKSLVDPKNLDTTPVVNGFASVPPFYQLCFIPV
Chain of Cytochrome P450 2D6 (P10635 whole entry): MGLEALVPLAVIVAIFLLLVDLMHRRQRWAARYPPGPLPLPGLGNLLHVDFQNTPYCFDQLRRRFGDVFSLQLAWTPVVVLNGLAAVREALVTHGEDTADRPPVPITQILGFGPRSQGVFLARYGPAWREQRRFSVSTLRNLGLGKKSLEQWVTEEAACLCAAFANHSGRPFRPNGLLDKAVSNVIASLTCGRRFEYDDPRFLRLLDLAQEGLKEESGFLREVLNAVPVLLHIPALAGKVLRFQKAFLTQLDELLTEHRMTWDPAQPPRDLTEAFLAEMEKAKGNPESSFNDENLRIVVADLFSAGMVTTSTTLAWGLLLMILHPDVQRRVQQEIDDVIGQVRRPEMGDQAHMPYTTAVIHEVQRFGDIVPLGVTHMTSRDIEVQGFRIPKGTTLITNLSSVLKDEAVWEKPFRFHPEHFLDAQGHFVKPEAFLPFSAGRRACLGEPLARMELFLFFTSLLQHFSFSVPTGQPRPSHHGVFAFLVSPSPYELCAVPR
Chain of Cytochrome P450 3A4 (P08684 whole entry): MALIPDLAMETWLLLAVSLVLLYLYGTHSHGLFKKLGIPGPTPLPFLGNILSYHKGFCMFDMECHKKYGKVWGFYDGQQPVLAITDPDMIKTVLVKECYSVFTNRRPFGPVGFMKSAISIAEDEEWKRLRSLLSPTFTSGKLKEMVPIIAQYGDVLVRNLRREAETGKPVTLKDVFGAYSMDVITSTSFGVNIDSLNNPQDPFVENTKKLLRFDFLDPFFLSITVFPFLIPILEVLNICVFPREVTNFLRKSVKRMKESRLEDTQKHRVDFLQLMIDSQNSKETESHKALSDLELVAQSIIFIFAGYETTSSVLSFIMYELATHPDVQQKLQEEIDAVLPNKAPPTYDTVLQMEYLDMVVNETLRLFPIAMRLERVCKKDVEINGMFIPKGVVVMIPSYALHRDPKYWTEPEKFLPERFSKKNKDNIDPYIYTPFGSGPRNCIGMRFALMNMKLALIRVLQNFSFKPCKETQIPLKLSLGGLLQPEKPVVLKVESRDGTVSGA

## O=C=Nc1ccc(Cc2ccc(N=C=O)cc2)cc1.O=c1oc(=O)c2cc3c(=O)oc(=O)c3cc12
[1]
  AC50: 5.01 µM (inconclusive)

## CCC(C)(C)n1nnnc1CN(Cc1cccs1)Cc1cc2cc(OC)ccc2nc1O
[2]
  EC50: 30.6 µM (active)
[3]
  EC50: > 120 µM (not active)
[4]
  EC50: > 120 µM (not active)

## Cc1c(C(=O)NCCCN2CCCCC2)oc2ccc3c(c12)C(O)CC1(CCCCC1)O3 (configuration not stated)
[2]
  EC50: > 120 µM (not active)
[3]
  EC50: > 120 µM (not active)
[4]
  EC50: > 120 µM (not active)

## CCCC/C=C/C(NC(=O)C(C)(C)C)c1ccccc1 (configuration not stated)
[5]
  AC50: 39.8 µM (inconclusive)
[1]
  AC50: 20 µM (inconclusive)
[6]
  AC50: 20 µM (inconclusive)

## CCCCC(=O)NNC(=O)N1c2ccccc2Sc2ccccc21
[7]
  AC50: 0.919 µM (active)

## CC(/C=N\NC(=O)Cn1c(C)nc2ccccc21)=C\c1ccccc1
[1]
  AC50: 8.91 µM (inconclusive)
[8]; read-out: AC50
  AC50: 0.562 µM (inconclusive)

## Fc1ccc(-c2cc(-c3nnc4n3CCCCC4)c3ccccc3n2)cc1
[9]
  AC50: 11.2 µM (active)

## CCN1CCN(c2cc3nc(C)n(Cc4ccccc4)c(=O)c3cc2NC(=O)c2ccccc2F)CC1
[2]
  EC50: 8.04 µM (active)
[3]
  EC50: 8.28 µM (active)
[4]
  EC50: 8.79 µM (active)

## CCN(CC)c1ccc(CN2CCCCCC2)cc1
[7]
  AC50: 3.84 µM (active)

## CCOC(=O)c1[nH]c2ccccc2c1NC(=O)c1ccc(S(=O)(=O)N2CCCCC2)cc1
[2]
  EC50: 18.7 µM (active)
[3]
  EC50: 83.1 µM (active)
[4]
  EC50: > 120 µM (not active)

## Cc1nc2cncnc2n(-c2ccccc2)c1=O
[5]
  AC50: 39.8 µM (inconclusive)
[1]
  AC50: 10 µM (inconclusive)
[10]
  AC50: 12.6 µM (inconclusive)

## Cn1c(-c2ccc3nc(N)sc3c2)nc2cc(N)ccc21
[7]
  AC50: 0.384 µM (active)

## COc1ccc(-c2ccc(C3C(C#N)=C(N)Oc4[nH]nc(C)c43)o2)cc1 (configuration not stated)
[11]
  EC50: 10.1 µM (active)

## N#C/C(=C/c1ccc(-c2ccc([N+](=O)[O-])cc2)o1)c1nnc(N2CCOCC2)n1-c1ccccc1
[11]
  EC50: 11 µM (active)

## CCOC(=O)c1c(/N=C/C2C(=O)NC(=S)NC2=O)sc2c1CCC2
[11]
  EC50: > 53 µM (inactive)

## c1ccc2c(CCNc3ncnc4nc[nH]c34)c[nH]c2c1
[7]
  AC50: 3.85 µM (active)

## CCCCn1cnc2c(c(CC#N)nn2-c2ccccc2)c1=N
[1]
  AC50: 1 µM (inconclusive)
[8]; read-out: AC50
  AC50: 6.31 µM (inconclusive)

## COC(=O)c1ccc(CSc2nc(O)c3cnn(-c4ccc(C)cc4)c3n2)o1
[2]
  EC50: 23.9 µM (active)
[3]
  EC50: > 120 µM (not active)
[4]
  EC50: > 120 µM (not active)

## O=C(NCC(c1cccnc1)N1CCN(c2ccccc2)CC1)C1CCCCC1 (configuration not stated)
[7]
  AC50: 19.4 µM (active)

## CCN(CC)Cc1c(O)c(Cl)cc2c3c(c(=O)oc12)CCCC3
[5]
  AC50: 25.1 µM (inconclusive)
[1]
  AC50: 11.2 µM (inconclusive)
[8]
  AC50: inconclusive

## Nc1nc(OCC2CCCCC2)c2nc[nH]c2n1
[2]
  EC50: 16.5 µM (active)
[3]
  EC50: 13.7 µM (active)
[4]
  EC50: 15.8 µM (active)

## Cc1csc2ncnc(N3CCN(C(S)=Nc4ccc(C(F)(F)F)cc4)CC3)c12
[2]
  EC50: > 120 µM (not active)
[3]
  EC50: > 120 µM (not active)
[4]
  EC50: > 120 µM (not active)

## COc1ccccc1N1CCN(CCCCN2C(=O)CCC2=O)CC1
[1]
  AC50: 39.8 µM (inconclusive)

## CCN(CC)c1ccc(/C=N/NC(=O)c2cccc(N3CCCC3=O)c2)cc1
[7]
  AC50: 2.14 µM (active)

## COc1ccc(C(=O)N2CCC3(CC2)CCN(c2ccncc2)CC3)cc1
[1]
  AC50: 39.8 µM (inconclusive)
[6]
  AC50: 15.8 µM (inconclusive)
[10]
  AC50: 15.8 µM (inconclusive)

## NCCCCCCCCCCNS(=O)(=O)c1cccc2c(Cl)cccc12
[1]
  AC50: 15.8 µM (inconclusive)

## O=C1C2C3C=CC(C3)C2C(=O)N1/N=C/c1cn(Cc2ccccc2)c2ccccc12 (configuration not stated)
[2]
  EC50: 11 µM (active)
[8]; read-out: AC50
  AC50: 8.91 µM (inconclusive)
[3]
  EC50: 2.2 µM (active)
[6]
  AC50: 39.8 µM (inconclusive)
[4]
  EC50: 12.5 µM (active)

## Cc1ccc(CN2CC34C=CC(O3)C(C(=O)NCc3ccc5c(c3)OCO5)C4C2=O)cc1 (configuration not stated)
[5]
  AC50: 12.6 µM (inconclusive)
[1]
  AC50: 17.8 µM (inconclusive)

## COc1cc2c(cc1OC)C(C(=O)Nc1ccccn1)C(c1cccnc1)N(C)C2=O (configuration not stated)
[5]
  AC50: 11.2 µM (inconclusive)
[1]
  AC50: 25.1 µM (inconclusive)

## Cc1ccccc1CN(C)CC(=O)Nc1cccc(S(=O)(=O)N(C)c2ccccc2)c1
[2]
  EC50: > 120 µM (not active)
[3]
  EC50: > 120 µM (not active)
[4]
  EC50: > 120 µM (not active)

## CC(C)(C)c1ccc(NC(=O)N2CCCN(c3c(Cl)cncc3Cl)CC2)cc1
[12]
  AC50: 0.601 µM (active)

## COc1cc(/C=N/NC(=O)C2C3CCCCC32C)cc(Br)c1O (configuration not stated)
[7]
  AC50: 0.272 µM (active)

## CCN(CCCNC(=O)C1CCC(=O)N1Cc1ccc(C)cc1)c1cccc(C)c1 (configuration not stated)
[7]
  AC50: 0.677 µM (active)

## Cc1noc(C)c1-c1ccc2ncnc(N3CCC(C(=O)O)CC3)c2c1
[1]
  AC50: 25.1 µM (inconclusive)

## CN1CCN(c2ncc3nc(-c4cccc(C#N)c4)c(=O)n(C)c3n2)CC1
[5]
  AC50: 39.8 µM (inconclusive)
[1]
  AC50: 12.6 µM (inconclusive)

## O=C(NCCNS(=O)(=O)c1ccccc1Cl)c1cc(OCC(F)(F)F)ccc1OCC(F)(F)F
[5]
  AC50: 12.6 µM (inconclusive)
[1]
  AC50: 31.6 µM (inconclusive)
[6]
  AC50: 22.4 µM (inconclusive)

## Cc1cc(N2CCOCC2)nc(N)n1
[11]
  EC50: 10.4 µM (active)

## CC(C)c1cc(-c2cc(-c3ccccc3)on2)nc(NC2CCCC2)n1
[12]
  AC50: 10.1 µM (active)

## Cn1c(=O)[nH]c(=O)c2c1nc(N1CCC(Cc3ccccc3)CC1)n2Cc1ccccc1
[2]
  EC50: 19.4 µM (active)
[3]
  EC50: 56.4 µM (active)
[13]
  EC50: 18 µM (active)
[4]
  EC50: > 120 µM (not active)
[14]
  EC50: 4.39 µM (active)
[15]
  EC50: > 150 µM (not active)

## O=C(c1ccc(Cl)cc1)c1c[nH]c(C(=O)NNc2ccccc2)c1
[12]
  AC50: 1.34 µM (active)

## Cc1cc(CC(=O)O)n(C)c1C(=O)c1ccc(Cl)cc1 [ZOMEPIRAC SODIUM]
[1]
  AC50: 12.6 µM (inconclusive)

## CC(=O)Oc1ccc(C(=O)Nc2ccc(C3(C#N)CCCC3)cc2)cc1
[12]
  AC50: 1.83 µM (active)
